# Experiments:
# [1] = target: T1, cytochrome P450 2C9-isoenzyme (Homo sapiens, UniProt P11712); assay: Inhibition of CYP-2C9 (diclofenac hydroxylation, human liver microsomes); type: in vitro ADME; conditions: human liver microsomes 0.1 mg/mL, diclofenac 10 μM, 37° C.
# T1 construct: is assayed at 37° C. with human liver microsomes; from tissue; host or cells: human liver microsomes
# Procedure: All assays are carried out on a robotic system in 96 well plates. The final incubation volume contains TRIS buffer (0.1 M), MgCl2 (5 mM), human liver microsomes (0.1 mg/mL), diclofenac (10 μM) and the test compound at five different concentrations or no compound (high control) in duplicate (e.g. highest concentration 10-50 μM with subsequent serial 1:4 dilutions). Following a short preincubation period, reactions are started with the cofactor (NADPH, 1 mM) and stopped by cooling the incubation down to 8° C. and subsequently by addition of one volume of acetonitrile. An internal standard solution—the stable isotope 13C6-hydroxydiclofenac—is added after quenching of incubations. Peak area analyte (=metabolite formed) and internal standard is determined by LC-MS/MS. The resulting peak area ratio analyte to internal standard in these incubations is compared to a control activity containing no test compound. Within each of the assay runs, the IC50 of a positive control inhibitor (sulfaphenazole) is determined. Experimental IC50 values are calculated by least square regression according to the following equation: % control activity=(100% control activity/(1+(I/IC50)S)))−B with I=inhibitor concentration S=slope factor B=background activity (lower plateau of the inhibition curve) If the inhibition of the reaction is already >50% at the lowest concentration of the test compound, the IC50 is assigned “<lowest concentration tested” (usually <0.4 μM). If the inhibition of the reaction is still <50% at the highest concentration of the test compound, the IC50 is assigned “>highest concentration tested” (usually >50 μM).
# [2] = target: T2, cytochrome P450 2C8-isoenzyme (Homo sapiens, UniProt P10632); assay: Inhibition of CYP-2C8 (amodiaquine deethylation, human liver microsomes); type: in vitro ADME; conditions: human liver microsomes 0.05 mg/mL, amodiaquine 1 μM, 37° C.
# T2 construct: is assayed at 37° C. with human liver microsomes; from tissue; host or cells: human liver microsomes
# T2 sequence (P10632 1-490): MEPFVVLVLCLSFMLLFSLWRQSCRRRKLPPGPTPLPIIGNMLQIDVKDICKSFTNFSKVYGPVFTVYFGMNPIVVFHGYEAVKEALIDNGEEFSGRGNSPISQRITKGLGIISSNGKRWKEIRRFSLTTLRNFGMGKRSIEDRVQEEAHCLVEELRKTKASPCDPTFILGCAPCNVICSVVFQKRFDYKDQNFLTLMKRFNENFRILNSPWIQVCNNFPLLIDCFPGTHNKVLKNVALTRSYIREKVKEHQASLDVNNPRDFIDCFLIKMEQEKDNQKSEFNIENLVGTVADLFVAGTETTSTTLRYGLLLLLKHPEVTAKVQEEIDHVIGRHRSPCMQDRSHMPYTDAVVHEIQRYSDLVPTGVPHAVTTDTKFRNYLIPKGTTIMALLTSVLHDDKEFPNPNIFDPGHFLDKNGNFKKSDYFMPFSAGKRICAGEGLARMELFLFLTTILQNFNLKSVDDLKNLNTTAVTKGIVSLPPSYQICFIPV
# Procedure: All assays are carried out on a robotic system in 96 well plates. The final incubation volume contains TRIS buffer (0.1 M), MgCl2 (5 mM), human liver microsomes (0.05 mg/mL), amodiaquine (1 μM) and the test compound at five different concentrations or no compound (high control) in duplicate (e.g. highest concentration 10-50 μM with subsequent serial 1:4 dilutions). Following a short preincubation period, reactions are started with the cofactor (NADPH, 1 mM) and stopped by cooling the incubation down to 8° C. and subsequently by addition of one volume of acetonitrile. An internal standard solution—the stable isotope d5-desethylamodiaquine—is added after quenching of incubations. Peak area analyte (=metabolite formed) and internal standard is determined by LC-MS/MS. The resulting peak area ratio analyte to internal standard in these incubations is compared to a control activity containing no test compound. Within each of the assay runs, the IC50 of a positive control inhibitor (Montelukast) is determined. Experimental IC50 values are calculated by least square regression according to the following equation: % control activity=(100% control activity/(1+(I/IC50)S))−B with I=inhibitor concentration; S=slope factor; B=background activity (lower plateau of the inhibition curve) If the inhibition of the reaction is already >50% at the lowest concentration of the test compound, the IC50 is assigned “<lowest concentration tested” (usually <0.4 μM). If the inhibition of the reaction is still <50% at the highest concentration of the test compound, the IC50 is assigned “>highest concentration tested” (usually >50 μM).
# [3] = Chemical stability (degradation kinetics) in acidic aqueous media, HPLC; type: physicochemical; conditions: acetonitrile/0.1 M aqueous HCl (2:3), pH ca. 1.2, 37° C.
# Procedure: Degradation kinetics is used to simulate chemical stability of compounds in the acidic part of the gastro intestinal tract. […] Their application as medical drugs to treat human diseases is therefore less restricted and troublesome. The chemical stability of the compounds of the invention at pH value of ca. 1.2 is determined as follows: Compound is dissolved in an HPLC vial either in a mixture of acetonitrile/0.1 M aqueous HCl (2:3; pH ca. 1.2) or in a mixture of acetonitrile/McIlvaine buffer pH 7.4 (2:3) to get a concentration of approximately 0.25 mg/ml. The vial was then transferred into an HPLC autosampler system and maintained at a temperature of 37° C. A first sample is taken and injected immediately into a standard HPLC system with a UV DAD detector. Further samples are injected after 2, 4, 6, 8 and 10 hours. Degradation of the compound is measured by determining the recovery rate of compound [%] for each injection using an HPLC standard gradient method. Therefore the peak area of the main peak for the first injection (AUt0) is determined and set as 100%. Peak area of the main peak is determined also for the further injections (AUtn, n=2, 4, 6, 8, 10) and expressed as fraction of […][%].
# [4] = Aqueous solubility from DMSO stock, LC-UV; type: physicochemical; conditions: aqueous buffer, kinetic from dmso stock; buffer pH 2.2, 24 h shaking, 2.5% DMSO
# Procedure: The aqueous solubility of the compounds of the invention is determined by comparing the amount dissolved in buffer to the amount in an acetonitrile/water (1/1) solution. Starting from a 10 mM DMSO stock solution aliquots are diluted with acetonitrile/water (1/1) or buffer, respectively. After 24 h of shaking, the solutions are filtrated and analyzed by LC-UV. The amount dissolved in buffer is compared to the amount in the acetonitrile solution. Solubility is usually being measured from 0.001 to 0.125 mg/mL at a DMSO concentration of 2.5%. If more than 90% of the compound is dissolved in buffer, the value is marked with “>”.
# human GPR40 receptor = human GPR40 receptor (Homo sapiens, UniProt O14842); assay: IP1 accumulation measurements using the IPOne assay system; type: cell-based; conditions: 1321N1 cells stably expressing human GPR40; 1 h stimulation at 37° C.
# Chain of human GPR40 receptor (O14842 whole entry): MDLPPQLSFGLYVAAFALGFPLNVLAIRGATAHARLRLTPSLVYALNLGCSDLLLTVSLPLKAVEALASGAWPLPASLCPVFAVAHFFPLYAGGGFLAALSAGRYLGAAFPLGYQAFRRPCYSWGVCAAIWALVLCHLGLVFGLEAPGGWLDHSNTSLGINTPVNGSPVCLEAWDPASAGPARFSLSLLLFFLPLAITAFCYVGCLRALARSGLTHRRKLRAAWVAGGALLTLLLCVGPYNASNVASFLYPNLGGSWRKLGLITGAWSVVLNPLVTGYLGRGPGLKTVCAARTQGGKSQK
# Procedure: IP1 accumulation measurements using the IPOne assay system—1321N1 cells stably expressing human GPR40 receptor (Euroscreen, Belgium) are seeded 24 h before the assay in white 384-well plates in culture medium containing 10% FCS, 1% Na-Pyruvate and 400 μg/mL G418. IP1 is assayed according to the manufacturer's description (Cisbio Bioassays, France). In brief, the assay is started by substitution of the culture medium by stimulation buffer (Hepes 10 mM, CaCl2 1 mM, MgCl2 0.5 mM, KCl 4.2 mM, NaCl 146 mM, glucose 5.5 mM and LiCl 50 mM, pH 7.4). Cells are stimulated for 1 h at 37° C., 5% CO2 by addition of the compounds that are diluted in stimulation buffer containing LiCl. Assays are stopped by adding HTRF-conjugates (IP1-d2 and Anti-IP1 cryptate Tb) and lysis buffer, provided by the manufacturer. After an incubation time of 1 h at room temperature plates are measured using an EnVision™, Perkin Elmer. The obtained fluorescence ratios at 665/615 […] are then used to calculate the pEC50 values using Assay Explorer 3.3 Software (Accelrys, Inc.) by interpolation using an IP1 reference curve and subsequent sigmoidal curve fitting allowing for a variable hill slope.
# T1 sequence (P11712 whole entry): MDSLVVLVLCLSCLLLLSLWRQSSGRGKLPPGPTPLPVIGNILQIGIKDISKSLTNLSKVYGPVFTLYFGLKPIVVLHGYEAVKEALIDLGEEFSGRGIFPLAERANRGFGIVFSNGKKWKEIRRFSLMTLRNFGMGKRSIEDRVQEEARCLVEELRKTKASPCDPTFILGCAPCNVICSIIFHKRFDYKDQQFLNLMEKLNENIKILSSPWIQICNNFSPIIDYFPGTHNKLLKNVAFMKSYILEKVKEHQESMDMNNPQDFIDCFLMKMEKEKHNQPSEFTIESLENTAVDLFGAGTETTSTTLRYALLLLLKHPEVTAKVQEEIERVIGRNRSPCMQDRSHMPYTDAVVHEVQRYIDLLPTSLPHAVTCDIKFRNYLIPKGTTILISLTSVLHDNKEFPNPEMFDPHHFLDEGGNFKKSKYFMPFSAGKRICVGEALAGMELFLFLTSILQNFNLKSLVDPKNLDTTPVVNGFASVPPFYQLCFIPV
SMILES,IC50 [1] [µM],IC50 [2] [µM],Amount of degradation after 2 h [3] [%],solubility at 24 h [4] [µg/mL],EC50 (human GPR40 receptor) [nM]
"Cc1cc(-c2nnn(C)n2)cc(C)c1-c1ccc(F)c2c1CC[C@H]2Oc1ccc2c(c1)OC[C@H]2CC(=O)O [95 (WO 2013/144097), reference compound]",19,9,4,< 1,–
"Cc1cc(OCCC(C)(C)O)cc(C)c1-c1ccc(F)c2c1CC[C@H]2Oc1ccc2c(c1)OC[C@H]2CC(=O)O [4 (WO 2013/144097), reference compound]",21,6,13,< 1,–
"Cc1cc(OCCC(C)(C)O)cc(C)c1-c1ccc(F)c2c1CC[C@H]2Nc1cnc2c(c1)OC[C@H]2CC(=O)O [Example 2, 2-[(3S)-6-{[(1R)-7-Fluoro-4-[4-(3-hydroxy-3-methylbutoxy)-2,6-dimethylphenyl]-2,3-dihydro-1H-inden-1-yl]amino}-2H,3H-furo[3,2-b]pyridin-3-yl]acetic acid]",> 50,32,0.2,60,61
"Cc1cc(-c2nnn(C)n2)cc(C)c1-c1ccc(F)c2c1CC[C@H]2Nc1cnc2c(c1)OC[C@H]2CC(=O)O [Example 5, 2-[(3S)-6-{[(1R)-4-[2,6-Dimethyl-4-(2-methyl-2H-1,2,3,4-tetrazol-5-yl)phenyl]-7-fluoro-2,3-dihydro-1H-inden-1-yl]amino}-2H,3H-furo[3,2-b]pyridin-3-yl]acetic acid]",48,22,0.4,7,26
"Cc1cc(OCCC(C)(C)O)cc(C)c1-c1cccc2c1CC[C@H]2Nc1cnc2c(c1)OC[C@H]2CC(=O)O [Example 4, 2-[(3S)-6-{[(1R)-4-[4-(3-Hydroxy-3-methylbutoxy)-2,6-dimethylphenyl]-2,3-dihydro-1H-inden-1-yl]amino}-2H,3H-furo[3,2-b]pyridin-3-yl]acetic acid]",> 50,43,<0.5,57,64
"Cc1cc(-c2nnn(C)n2)cc(C)c1-c1cccc2c1CC[C@H]2Nc1cnc2c(c1)OC[C@H]2CC(=O)O [Example 3, 2-[(3S)-6-{[(1R)-4-[2,6-Dimethyl-4-(2-methyl-2H-1,2,3,4-tetrazol-5-yl)phenyl]-2,3-dihydro-1H-inden-1-yl]amino}-2H,3H-furo[3,2-b]pyridin-3-yl]acetic acid]",> 50,29,<0.5,6,42
"Cc1cc(OCC(C)(C)C#N)cc(C)c1-c1cccc2c1CC[C@H]2Nc1cnc2c(c1)OCC2CC(=O)O (stereo partly drawn) [Example 123, 2-(6-{[(1R)-4-[4-(2-Cyano-2,2-dimethylethoxy)-2,6-dimethylphenyl]-2,3-dihydro-1H-inden-1-yl]amino}-2H,3H-furo[3,2-b]pyridin-3-yl)acetic acid]",28,9,–,< 1,153
"O=C(O)CC1COc2cc(N[C@@H]3CCc4c(-c5ccccc5C(F)(F)F)cccc43)cnc21 (stereo partly drawn) [Example 125, 2-(6-{[(1R)-4-[2-(Trifluoromethyl)phenyl]-2,3-dihydro-1H-inden-1-yl]amino}-2H,3H-furo[3,2-b]pyridin-3-yl)acetic acid]",47,21,–,22,693
"Cc1cc(OCCCS(C)(=O)=O)cc(C)c1-c1cccc2c1CC[C@H]2Oc1ccc2c(c1)OC[C@H]2CC(=O)O [2 (WO 2013/144098), reference compound]",–,19,94,–,–
"Cc1ccc(Cl)c(-c2cccc3c2CC[C@H]3Nc2cnc3c(c2)OCC3CC(=O)O)c1Cl (stereo partly drawn) [Example 128, 2-(6-{[(1R)-4-(2,6-dichloro-3-methylphenyl)-2,3-dihydro-1H-inden-1-yl]amino}-2H,3H-furo[3,2-b]pyridin-3-yl)acetic acid]",> 50,14,–,1,126
"Cc1cc(OCC(C)(C)O)cc(C)c1-c1cccc2c1CC[C@H]2Nc1cnc2c(c1)OCC2CC(=O)O (stereo partly drawn) [Example 118, 2-(6-{[(1R)-4-[4-(2-Hydroxy-2-methylpropoxy)-2,6-dimethylphenyl]-2,3-dihydro-1H-inden-1-yl]amino}-2H,3H-furo[3,2-b]pyridin-3-yl)acetic acid]",> 50,> 50,–,66,158

# Source: patent publication US20180354962A1, “[{[2,3-Dihydro-1H-inden-1-yl]amino}-2H,3H-furo[3,2-b]pyridin-3-yl]acetic acids, pharmaceutical compositions and uses thereof” (Boehringer Ingelheim International GmbH, priority 2015, published 2018)
